Laboratory results taken from patent publication US20120034193A1, “TREATMENT OF NEUROTROPHIC FACTOR MEDIATED DISORDERS” (priority 2009, published 2012).

Key:
BDNF = test: Brain BDNF in aged rats (ELISA); assay type: in vivo, Sprague Dawley (SD) rats; details: 18 mg/kg/day oral, 3 months, aged 1.21, young 1.65
Procedure: Old Sprague Dawley (SD) rats (20 month old) were orally administered sarsasapogenin or smilagenin (18 mg/kg/day) for 3 months. […] Young SD rats (4 month old) were used as healthy positive control. At the end of the treatment the brains removed for quantification of BDNF using an ELISA.

[1] = Tissue distribution after a single oral administration, rat; assay type: in vivo; details: 18 mg/kg single oral
Rat cortical neurones [2] = test: Reversal of glutamate-induced damage in cortical neurones; assay type: cell-based; details: 30 nM for 24 h after glutamate 100 μM 10 min
Procedure: The rat cortical neurones were prepared as detailed above. On day 13, cultures were exposed to glutamate (100 μM) for 10 min at 37° C. in 5% CO2/95% air atmosphere in defined medium. Following the incubation period, the cultures were washed and maintained in fresh medium, containing sarsasapogenin, smilagenin or vehicle. Cells were cultured for a further 24 h after glutamate exposure and were then assessed for neuronal damage as detailed above.

Rat cortical neurones [3] = test: Neuronal survival and neurite outgrowth of cortical neurones cultured in the absence of serum; assay type: cell-based; details: 30 nM, one day, no serum
Procedure: Rat cortical neurones were cultured following the method described above.
The test compounds were added for 24 h.
Rat cortical neurones were exposed to sarsasapogenin, smilagenin (30 nM) or vehicle (DMSO, 0.25%) in the absence FBS or FCS for one day. Cortical neurones were stained using a monoclonal antibody anti β-tubulin diluted and an anti mouse Immunoglobulin G diluted. These antibodies stained neurone cell bodies (quantifying the neuroprotective effect) and neurites (quantifying the neurotrophic effect). An epifluorecence microscope (magnification ×20) with a camera took 2 pictures per well (10 pictures per condition). Analyses of the number of cells labelled with anti β-tubulin antibodies and of the total number of cells was performed using LUCIA 6.0 software.

[4] = tested on: Rat dopaminergic neurones; test: Pre-treatment against MPP+-induced loss of dopaminergic neurones; assay type: cell-based; details: 30 nM, 24 h before and during MPP+ 2 μM 48 h
Procedure: Rat dopaminergic neurones were cultured as previously described (Schinelli et al., Journal of Neurochemistry, 1988, 50, pp. 1900-1907). On day 5, the cultures were washed and placed in fresh medium containing test compounds (30 nM), vehicle (DMSO, 0.25%) or a combination of BDNF (1.85 nM) and GDNF (0.17 nM) for 24 h.
Exposure of rat primary dopaminergic neurones to MPP^+ (2 μM, 24 h) causes a significant decrease in the number of dopaminergic neurones compared to the control. On day 6, MPP^+ (2 μM) was added to the cultures in the presence of test compounds, vehicle or a combination of BDNF and GDNF for a further 48 h. MPP^+ induces neuronal death, via inhibition of complex I in the mitochondria and consequent ATP depletion, resulting in the production of free radicals and induction of apoptosis. After the incubation period, the cultures were fixed with paraformaldehyde in PBS (4%). After fixation, the neurones were permeabilised with Triton ×100 (0.05%) for 30 min. The neurones were then incubated with anti-tyrosine hydroxylase (TH) at 37° C. for 2 h. The neurones were washed three times with PBS, and then incubated with goat anti mouse/Cy3 for 2 h at 37° C. The neurones were mounted and examined with the fluorescence microscopy.

[5] = Tissue distribution after a single oral administration, dog; assay type: in vivo; details: Dog M, 10 mg/kg single oral
[6] = tested on: rat primary cortical neurones; test: ChAT positive neurones and neurite outgrowth after β-amyloid exposure; assay type: cell-based; details: 10 μM pre-incubation 48 h, then β-amyloid 10 μg/ml 48 h
Procedure: Rat cortical neurones were cultured by modification of a method previously described (Eckenstein and Sofroniew, Journal of Neuroscience, 1983, 3, pp. 2286-2291). On day 8, the culture medium was changed to a medium containing vehicle (DMSO, 0.5%) or smilagenin or sarsasapogenin (10 μM). On day 10, rat primary cortical neurones were exposed to β-amyloid (10 μg/ml) for 48 h at 37° C. and the concentration of BDNF in the culture medium, the number of choline acetyltransferase (ChAT) positive cells, and the neurite outgrowth was measured (smilagenin only).

C[C@@H]1CC[C@@]2(OC1)O[C@H]1C[C@H]3[C@@H]4CC[C@@H]5C[C@@H](O)CC[C@]5(C)[C@H]4CC[C@]3(C)[C@H]1[C@@H]2C [Smilagenin, smilagenin]
BDNF (ng/g tissue) (BDNF): 1.34 ± 0.07 ng/g tissue
Concentration of compound, Brain ([1]; Rat F, 1 h): 704 ng equivalents/g tissue
Concentration of compound, Plasma ([1]; Rat F, 1 h): 1626 ng equivalents/g tissue
Concentration of compound, Spinal cord ([1]; Rat F, 1 h): 608 ng equivalents/g tissue
Concentration of compound, Brain ([1]; Rat F, 4 h): 2330 ng equivalents/g tissue
Concentration of compound, Plasma ([1]; Rat F, 4 h): 1824 ng equivalents/g tissue
Concentration of compound, Spinal cord ([1]; Rat F, 4 h): 2049 ng equivalents/g tissue
Concentration of compound, Brain ([1]; Rat F, 8 h): 2940 ng equivalents/g tissue
Concentration of compound, Plasma ([1]; Rat F, 8 h): 1658 ng equivalents/g tissue
Concentration of compound, Spinal cord ([1]; Rat F, 8 h): 2823 ng equivalents/g tissue
Concentration of compound, Brain ([1]; Rat F, 24 h): 954 ng equivalents/g tissue
Concentration of compound, Plasma ([1]; Rat F, 24 h): 394 ng equivalents/g tissue
Concentration of compound, Spinal cord ([1]; Rat F, 24 h): 1284 ng equivalents/g tissue
Concentration of compound, Brain ([1]; Rat F, 168 h): 52 ng equivalents/g tissue
Concentration of compound, Plasma ([1]; Rat F, 168 h): 46 ng equivalents/g tissue
Concentration of compound, Spinal cord ([1]; Rat F, 168 h): 243 ng equivalents/g tissue
Concentration of compound, Brain ([1]; Rat M, 1 h): 769 ng equivalents/g tissue
Concentration of compound, Plasma ([1]; Rat M, 1 h): 2045 ng equivalents/g tissue
Concentration of compound, Spinal cord ([1]; Rat M, 1 h): 958 ng equivalents/g tissue
Concentration of compound, Brain ([1]; Rat M, 4 h): 3372 ng equivalents/g tissue
Concentration of compound, Plasma ([1]; Rat M, 4 h): 3842 ng equivalents/g tissue
Concentration of compound, Spinal cord ([1]; Rat M, 4 h): 3286 ng equivalents/g tissue
Concentration of compound, Brain ([1]; Rat M, 8 h): 4457 ng equivalents/g tissue
Concentration of compound, Plasma ([1]; Rat M, 8 h): 3896 ng equivalents/g tissue
Concentration of compound, Spinal cord ([1]; Rat M, 8 h): 4520 ng equivalents/g tissue
Concentration of compound, Brain ([1]; Rat M, 24 h): 1417 ng equivalents/g tissue
Concentration of compound, Plasma ([1]; Rat M, 24 h): 857 ng equivalents/g tissue
Concentration of compound, Spinal cord ([1]; Rat M, 24 h): 1957 ng equivalents/g tissue
Concentration of compound, Brain ([1]; Rat M, 168 h): 122 ng equivalents/g tissue
Concentration of compound, Plasma ([1]; Rat M, 168 h): 122 ng equivalents/g tissue
Concentration of compound, Spinal cord ([1]; Rat M, 168 h): 256 ng equivalents/g tissue
Neuronal survival (% of control) (Rat cortical neurones [2]): 111.06 ± 3.40 % of control
Neurite outgrowth (% of control) (Rat cortical neurones [3]): 173.89 ± 9.23 % of control
Neuronal survival (% of control) (Rat cortical neurones [3]): 155.36 ± 4.75 % of control
Neuronal survival (% of control) [4]: 97.91 ± 3.63 % of control
Concentration of compound, Brain ([5]; 2 h): 3670 ng equivalents/g tissue
Concentration of compound, Plasma ([5]; 2 h): 3878 ng equivalents/g tissue
Concentration of compound, Spinal cord ([5]; 2 h): 1805 ng equivalents/g tissue
Concentration of compound, Brain ([5]; 24 h): 5813 ng equivalents/g tissue
Concentration of compound, Plasma ([5]; 24 h): 1508 ng equivalents/g tissue
Concentration of compound, Spinal cord ([5]; 24 h): 3647 ng equivalents/g tissue
Concentration of compound, Brain ([5]; 168 h): 1727 ng equivalents/g tissue
Concentration of compound, Plasma ([5]; 168 h): 1129 ng equivalents/g tissue
Concentration of compound, Spinal cord ([5]; 168 h): 3165 ng equivalents/g tissue
Neurite outgrowth (% of control) [6]: 85.8 ± 4.0 % of control
Number of ChAT positive neurones per field (% of control) [6]: 70.1 ± 9.6 % of control
